# Experimental data published in ChEMBL document CHEMBL5653615 (J Biol Chem, 2013).
# Experiments:
# [1] = biological target: Fibroblast growth factor receptor 3 (Homo sapiens) (UniProt P22607); experiment: Inhibition of human FGFR3 at 18.6 nM by HotSpot assay relative to control
# [2] = biological target: T1, Serine/threonine-protein kinase D2 (Homo sapiens) (UniProt Q9BZL6); experiment: Inhibition of human PRKD2 at 18.6 nM by HotSpot assay relative to control
# T1 sequence (whole entry): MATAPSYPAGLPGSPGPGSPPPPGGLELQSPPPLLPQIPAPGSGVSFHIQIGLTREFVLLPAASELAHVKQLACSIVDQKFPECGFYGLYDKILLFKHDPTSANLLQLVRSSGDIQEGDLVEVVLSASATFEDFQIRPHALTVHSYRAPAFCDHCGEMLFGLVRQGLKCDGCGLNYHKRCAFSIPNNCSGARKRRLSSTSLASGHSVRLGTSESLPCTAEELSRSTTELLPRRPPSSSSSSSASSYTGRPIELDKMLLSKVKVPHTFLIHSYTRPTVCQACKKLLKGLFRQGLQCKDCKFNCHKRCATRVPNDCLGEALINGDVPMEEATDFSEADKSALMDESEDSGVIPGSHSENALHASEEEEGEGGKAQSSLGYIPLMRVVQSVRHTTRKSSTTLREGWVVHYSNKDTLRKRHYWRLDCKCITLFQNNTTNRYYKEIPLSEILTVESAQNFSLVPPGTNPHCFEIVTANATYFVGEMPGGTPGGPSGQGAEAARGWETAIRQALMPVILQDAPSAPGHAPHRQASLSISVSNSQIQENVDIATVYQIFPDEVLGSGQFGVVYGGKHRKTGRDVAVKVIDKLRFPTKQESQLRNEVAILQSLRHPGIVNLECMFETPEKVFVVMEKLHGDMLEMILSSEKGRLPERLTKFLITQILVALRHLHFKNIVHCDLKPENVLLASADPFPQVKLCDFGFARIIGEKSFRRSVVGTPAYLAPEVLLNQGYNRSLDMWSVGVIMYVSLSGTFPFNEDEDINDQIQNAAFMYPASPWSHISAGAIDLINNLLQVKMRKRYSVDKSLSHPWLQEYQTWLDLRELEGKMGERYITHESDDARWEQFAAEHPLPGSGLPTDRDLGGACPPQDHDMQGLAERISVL
# [3] = biological target: Activin receptor type-1-like (Homo sapiens) (UniProt P37023); experiment: Inhibition of human ALK1 at 18.6 nM by HotSpot assay relative to control
# [4] = biological target: T2, Tyrosine-protein kinase ITK/TSK (Homo sapiens) (UniProt Q08881); experiment: Inhibition of human ITK at 18.6 nM by HotSpot assay relative to control
# T2 sequence (whole entry): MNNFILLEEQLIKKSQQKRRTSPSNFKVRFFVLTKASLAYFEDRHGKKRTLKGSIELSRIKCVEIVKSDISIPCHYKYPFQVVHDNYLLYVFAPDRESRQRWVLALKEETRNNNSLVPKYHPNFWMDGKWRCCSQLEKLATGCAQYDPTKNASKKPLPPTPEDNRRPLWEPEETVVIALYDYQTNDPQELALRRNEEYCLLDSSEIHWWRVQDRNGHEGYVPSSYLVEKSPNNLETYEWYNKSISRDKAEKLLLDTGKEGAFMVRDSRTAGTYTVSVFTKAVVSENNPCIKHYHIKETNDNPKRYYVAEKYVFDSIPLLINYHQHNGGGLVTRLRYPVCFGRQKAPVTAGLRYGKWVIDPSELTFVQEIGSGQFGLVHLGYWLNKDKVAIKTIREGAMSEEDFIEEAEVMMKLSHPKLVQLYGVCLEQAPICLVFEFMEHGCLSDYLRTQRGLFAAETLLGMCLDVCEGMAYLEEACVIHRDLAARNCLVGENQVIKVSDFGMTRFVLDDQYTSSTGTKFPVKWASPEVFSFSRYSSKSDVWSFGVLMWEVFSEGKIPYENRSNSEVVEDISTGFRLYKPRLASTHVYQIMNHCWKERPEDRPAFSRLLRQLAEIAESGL
# [5] = biological target: T3, Rhodopsin kinase GRK7 (Homo sapiens) (UniProt Q8WTQ7); experiment: Inhibition of human GRK7 at 18.6 nM by HotSpot assay relative to control
# T3 sequence (whole entry): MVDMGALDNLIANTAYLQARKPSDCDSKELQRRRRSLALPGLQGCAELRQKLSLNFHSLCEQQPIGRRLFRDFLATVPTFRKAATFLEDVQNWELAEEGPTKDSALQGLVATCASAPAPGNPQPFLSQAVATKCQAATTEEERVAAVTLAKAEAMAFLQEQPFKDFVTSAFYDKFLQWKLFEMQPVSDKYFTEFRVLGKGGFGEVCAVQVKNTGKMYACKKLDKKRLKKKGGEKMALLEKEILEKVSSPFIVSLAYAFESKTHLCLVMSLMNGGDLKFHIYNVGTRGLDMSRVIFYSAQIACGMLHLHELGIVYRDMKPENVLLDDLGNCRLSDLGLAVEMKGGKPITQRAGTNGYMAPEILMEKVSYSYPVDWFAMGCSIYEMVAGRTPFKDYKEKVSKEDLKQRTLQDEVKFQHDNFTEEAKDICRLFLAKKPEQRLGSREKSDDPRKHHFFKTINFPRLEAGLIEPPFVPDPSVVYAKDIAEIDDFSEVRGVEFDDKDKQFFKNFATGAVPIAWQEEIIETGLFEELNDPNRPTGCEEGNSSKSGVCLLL
# [6] = biological target: Ephrin type-A receptor 7 (Homo sapiens) (UniProt Q15375); experiment: Inhibition of human EPHA7 at 1.82 nM by HotSpot assay relative to control
# [7] = biological target: Ribosomal protein S6 kinase alpha-5 (Homo sapiens) (UniProt O75582); experiment: Inhibition of human RPS6KA5 at 1.82 nM by HotSpot assay relative to control
# [8] = biological target: Mitogen-activated protein kinase kinase kinase 11 (Homo sapiens) (UniProt Q16584); experiment: Inhibition of human MAP3K11 at 1.82 nM by HotSpot assay relative to control
# Chain of Mitogen-activated protein kinase kinase kinase 11 (Homo sapiens) (Q16584 whole entry, looked up): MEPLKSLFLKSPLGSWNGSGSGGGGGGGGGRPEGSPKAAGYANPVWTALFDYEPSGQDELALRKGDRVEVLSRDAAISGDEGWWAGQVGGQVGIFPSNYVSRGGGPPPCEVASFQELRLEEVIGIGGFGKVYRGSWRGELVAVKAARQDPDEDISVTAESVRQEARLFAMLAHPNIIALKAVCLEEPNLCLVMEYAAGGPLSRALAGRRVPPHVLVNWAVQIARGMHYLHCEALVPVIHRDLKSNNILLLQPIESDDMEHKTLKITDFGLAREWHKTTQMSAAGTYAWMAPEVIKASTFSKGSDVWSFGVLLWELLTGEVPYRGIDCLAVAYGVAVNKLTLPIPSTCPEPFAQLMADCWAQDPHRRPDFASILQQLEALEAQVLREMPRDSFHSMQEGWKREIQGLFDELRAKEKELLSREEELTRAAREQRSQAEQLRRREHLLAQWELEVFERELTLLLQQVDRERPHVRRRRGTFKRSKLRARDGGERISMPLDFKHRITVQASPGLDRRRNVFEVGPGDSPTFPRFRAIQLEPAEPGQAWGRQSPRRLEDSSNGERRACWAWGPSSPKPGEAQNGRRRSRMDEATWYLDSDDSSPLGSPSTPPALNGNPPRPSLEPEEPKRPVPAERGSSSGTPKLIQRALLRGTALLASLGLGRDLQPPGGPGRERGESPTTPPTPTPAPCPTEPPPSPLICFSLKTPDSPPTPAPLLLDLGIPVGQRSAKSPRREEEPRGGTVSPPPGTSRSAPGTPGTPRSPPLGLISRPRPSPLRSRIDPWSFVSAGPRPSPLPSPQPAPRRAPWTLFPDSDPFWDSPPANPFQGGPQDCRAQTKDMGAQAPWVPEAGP
# Chain of Activin receptor type-1-like (Homo sapiens) (P37023 whole entry): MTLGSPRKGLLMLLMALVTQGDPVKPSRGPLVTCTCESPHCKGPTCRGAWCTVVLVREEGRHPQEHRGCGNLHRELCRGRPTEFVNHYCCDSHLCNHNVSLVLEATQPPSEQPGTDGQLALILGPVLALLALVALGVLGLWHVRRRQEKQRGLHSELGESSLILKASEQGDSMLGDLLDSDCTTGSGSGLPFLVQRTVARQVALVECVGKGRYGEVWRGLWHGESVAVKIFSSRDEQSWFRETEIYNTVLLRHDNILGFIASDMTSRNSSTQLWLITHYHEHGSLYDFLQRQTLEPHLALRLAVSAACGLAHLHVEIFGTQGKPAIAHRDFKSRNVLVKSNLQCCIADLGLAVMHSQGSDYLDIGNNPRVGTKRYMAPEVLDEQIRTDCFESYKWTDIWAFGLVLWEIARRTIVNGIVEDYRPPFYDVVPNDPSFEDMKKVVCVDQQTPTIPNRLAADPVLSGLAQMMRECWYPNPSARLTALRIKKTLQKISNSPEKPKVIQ
# Chain of Fibroblast growth factor receptor 3 (Homo sapiens) (P22607 23-806 limits assumed): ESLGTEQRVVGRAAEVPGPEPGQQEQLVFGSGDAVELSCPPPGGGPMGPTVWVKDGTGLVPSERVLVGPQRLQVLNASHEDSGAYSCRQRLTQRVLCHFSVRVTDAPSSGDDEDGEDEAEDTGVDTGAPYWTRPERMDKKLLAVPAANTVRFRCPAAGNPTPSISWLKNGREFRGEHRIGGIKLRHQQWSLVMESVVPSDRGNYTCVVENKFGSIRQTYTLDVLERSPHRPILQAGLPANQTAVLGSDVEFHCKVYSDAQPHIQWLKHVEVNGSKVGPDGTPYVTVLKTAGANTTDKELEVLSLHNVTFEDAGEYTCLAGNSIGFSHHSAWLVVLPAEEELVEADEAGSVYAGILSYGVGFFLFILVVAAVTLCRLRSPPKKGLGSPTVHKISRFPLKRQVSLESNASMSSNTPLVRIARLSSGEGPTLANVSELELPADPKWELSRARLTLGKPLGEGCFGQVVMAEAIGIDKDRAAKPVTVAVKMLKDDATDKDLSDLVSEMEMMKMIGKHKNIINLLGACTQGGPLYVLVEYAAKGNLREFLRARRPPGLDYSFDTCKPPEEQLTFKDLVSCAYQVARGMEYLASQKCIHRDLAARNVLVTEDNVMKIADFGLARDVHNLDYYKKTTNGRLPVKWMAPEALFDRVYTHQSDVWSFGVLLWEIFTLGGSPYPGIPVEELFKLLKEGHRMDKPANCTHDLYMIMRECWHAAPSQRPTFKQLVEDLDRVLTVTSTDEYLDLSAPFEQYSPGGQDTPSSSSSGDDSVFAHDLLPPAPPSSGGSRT
# Chain of Ephrin type-A receptor 7 (Homo sapiens) (Q15375 28-998 limits assumed): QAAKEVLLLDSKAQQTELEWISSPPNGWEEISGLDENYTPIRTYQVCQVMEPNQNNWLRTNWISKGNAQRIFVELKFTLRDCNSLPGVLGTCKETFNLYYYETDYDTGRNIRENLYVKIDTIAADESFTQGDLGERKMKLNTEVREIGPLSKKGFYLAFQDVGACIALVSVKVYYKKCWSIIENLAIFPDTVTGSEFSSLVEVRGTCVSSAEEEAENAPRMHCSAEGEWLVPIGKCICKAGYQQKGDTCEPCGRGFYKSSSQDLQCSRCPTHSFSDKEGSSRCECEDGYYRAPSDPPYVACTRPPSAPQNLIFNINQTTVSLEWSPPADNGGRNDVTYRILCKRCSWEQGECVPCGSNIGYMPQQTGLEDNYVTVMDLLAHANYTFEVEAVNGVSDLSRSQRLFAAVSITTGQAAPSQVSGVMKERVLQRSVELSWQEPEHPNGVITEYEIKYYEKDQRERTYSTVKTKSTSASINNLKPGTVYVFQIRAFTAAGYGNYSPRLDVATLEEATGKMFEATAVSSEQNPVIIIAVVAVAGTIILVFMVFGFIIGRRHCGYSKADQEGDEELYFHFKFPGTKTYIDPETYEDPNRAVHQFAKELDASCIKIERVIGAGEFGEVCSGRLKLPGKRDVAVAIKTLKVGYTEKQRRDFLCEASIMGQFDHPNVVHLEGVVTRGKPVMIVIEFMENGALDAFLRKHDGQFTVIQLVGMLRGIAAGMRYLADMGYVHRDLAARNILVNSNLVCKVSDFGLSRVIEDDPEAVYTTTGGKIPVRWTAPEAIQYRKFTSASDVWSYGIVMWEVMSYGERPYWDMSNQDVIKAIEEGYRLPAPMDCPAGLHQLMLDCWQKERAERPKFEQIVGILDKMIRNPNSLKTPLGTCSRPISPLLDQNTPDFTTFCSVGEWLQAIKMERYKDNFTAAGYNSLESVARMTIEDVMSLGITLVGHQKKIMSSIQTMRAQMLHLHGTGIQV
# Chain of Ribosomal protein S6 kinase alpha-5 (Homo sapiens) (O75582 whole entry, looked up): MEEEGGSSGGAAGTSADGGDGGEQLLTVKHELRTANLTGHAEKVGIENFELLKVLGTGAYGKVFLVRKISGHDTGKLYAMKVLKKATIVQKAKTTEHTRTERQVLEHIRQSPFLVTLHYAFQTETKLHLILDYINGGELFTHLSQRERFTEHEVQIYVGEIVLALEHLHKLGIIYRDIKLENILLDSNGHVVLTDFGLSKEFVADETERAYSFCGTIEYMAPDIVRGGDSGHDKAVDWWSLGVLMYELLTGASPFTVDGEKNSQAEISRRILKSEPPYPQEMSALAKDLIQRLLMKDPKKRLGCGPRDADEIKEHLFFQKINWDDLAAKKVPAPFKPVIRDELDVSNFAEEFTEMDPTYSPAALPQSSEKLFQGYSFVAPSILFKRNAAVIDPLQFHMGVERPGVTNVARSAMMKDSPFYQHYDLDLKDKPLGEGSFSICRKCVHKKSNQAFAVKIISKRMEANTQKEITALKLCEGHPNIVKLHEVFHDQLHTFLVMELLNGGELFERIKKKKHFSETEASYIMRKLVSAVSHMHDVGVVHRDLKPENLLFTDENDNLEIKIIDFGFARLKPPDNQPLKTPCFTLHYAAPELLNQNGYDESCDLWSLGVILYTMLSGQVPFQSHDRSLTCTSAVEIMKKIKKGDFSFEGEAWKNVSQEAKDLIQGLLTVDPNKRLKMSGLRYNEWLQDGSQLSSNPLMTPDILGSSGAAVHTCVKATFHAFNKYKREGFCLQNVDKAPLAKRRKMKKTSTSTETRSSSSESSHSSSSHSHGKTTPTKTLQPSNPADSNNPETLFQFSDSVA
inhibition [1],inhibition [2],inhibition [3],inhibition [4],inhibition [5],inhibition [6],inhibition [7],inhibition [8],Compound
8.2%,7.59%,1.51%,-7.85%,0.1%,–,–,–,C[C@]1(O)C[C@@H](c2nc(-c3ccc4ccc(-c5ccccc5)nc4c3)c3c(N)nccn32)C1
–,–,–,–,–,3.41%,-3.72%,2.47%,C[C@@]1(C(=O)Nc2ccc(F)nc2)CCCN1c1nc(Nc2cc(C3CC3)n[nH]2)c2cccn2n1
